This is an account of results in patent publication US9481683B2, “1,3-benzothiazinone sulfoxide and sulfone compounds” (UNIVERSITY OF NOTRE DAME DU LAC, priority 2014, dated 2016).

Data set [1] concerns S. aureus SG511. The data set is described as follows: Broth microdilution MIC, S. aureus. It counts as cell-based, Staphylococcus aureus. To be noted: 37° C., 18-20 h, average of three measurements. (In general: Dilution methods test growth across graded concentrations, often in twofold steps.)
Data set [2] has as its system A. baumanii ATCC17961. The data set is described as follows: Broth microdilution MIC, A. baumanii. The data set is classed as cell-based, Acinetobacter baumanii. To be noted: 37° C., 18-20 h, average of three measurements.
Data set [3] concerns P. aeruginosa KW799/61. Kind of data set: Broth microdilution MIC, P. aeruginosa. The data set is classed as cell-based, Pseudomonas aeruginosa. To be noted: 37° C., 18-20 h, average of three measurements.
Data set [4] relates to M. vaccae IMET10670. The data set is described as follows: Broth microdilution MIC, M. vaccae. The data set is classed as cell-based, Mycobacterium vaccae. Conditions: 37° C., 18-20 h, average of three measurements.
Data set [5] has as its system M. smegmatis (MC2155). Kind of data set: Broth microdilution MIC, M. smegmatis. To be noted: 37° C., 18-20 h, average of three measurements. It counts as cell-based, Mycobacterium smegmatis.
Data set [6] concerns M. luteus ATCC10240. Kind of data set: Broth microdilution MIC, M. luteus. To be noted: 37° C., 18-20 h, average of three measurements. The data set is classed as cell-based.
For data set [7], the system named is M. aurum (SB66). Kind of data set: Broth microdilution MIC, M. aurum. Conditions: 37° C., 18-20 h, average of three measurements, in µM. It counts as cell-based, Mycobacterium aurum.
In data set [8] the test system is Mtb H37Rv (ATCC#27294). The data set is described as follows: Microplate Alamar Blue assay (MABA), replicating TB. The data set is classed as cell-based, Mycobacterium tuberculosis. To be noted: for MIC: Mycobacterium tuberculosis, H37Rv, reduction in fluorescence of ≧90%. For orientation: Resazurin is reduced to fluorescent resorufin, in cell work by metabolically active cells.

For data set [9], the system named is M. marinum (ATCC: 927). The data set is described as follows: NTM MIC assay, M. marinum. It counts as cell-based, Mycobacterium marinum. Conditions: for In vitro activity (MIC) M. marinum: Middlebrook 7H9 with OADC, 30° C., 5 days.
The test system of data set [10] is MCF-7 (breast cancer). Kind of data set: Cytotoxicity, crystal violet biomass reduction assay, MCF-7. It counts as cell-based. To be noted: 72 h. How it is done:
(§1) Cytotoxicity Assays: against PC3, HeLa and MCF-7 cell lines.
(§2) In vitro activities against cells were determined with a crystal violet biomass reduction assay. Cells were grown in media supplemented with fetal bovin serum and penicillin/streptromycin antibiotic. 100 μL of cell inoculums was added to each well. After cell inoculation, the 96 well micro-titer plates were incubated at 37° C. and 5% CO2 with 95% humidity for 24 h prior to addition of compounds. A stock solution of each compound was made in DMSO and then diluted with media to give a 40 μM solution. 100 μL of DMSO/media solutions of compounds were added in replicates of 3. 100 μL solution was added to the first set of wells. Two-fold serial dilutions were made down each row of the micro-titer plate. The cells were incubated in a 37° C., 5% CO2 and 95% humidity for 72 h. The media was removed and the cells were fixed with glutaraldehyde, rinsed, stained with crystal violet, rinsed and air dried. The stain was eluted with a solution of Triton-X-100 and optical density was measured at 595 nm. Trichostatin A was used as a positive control for all the cell lines tested.

The subject of data set [11] is M. bovis BCG (ATCC: 35734). It counts as cell-based, Mycobacterium bovis. To be noted: for In vitro activity (MIC) M. bovis: M. bovis BCG, 7H12, 37° C., 6 days.
Data set [12] deals with PC3 (prostate cancer). The data set is described as follows: Cytotoxicity, crystal violet biomass reduction assay, PC3. The data set is classed as cell-based. Conditions: 72 h. Here is the method:
as §1, §2

Data set [13] relates to M. kansasii (ATCC:12478). The data set is described as follows: NTM MIC assay, M. kansasii. It counts as cell-based, Mycobacterium kansasii. Conditions: for In vitro activity (MIC) M. kansasii: Middlebrook 7H9 with OADC, 37° C., 6 days.
Data set [14] deals with HeLa. Kind of data set: Cytotoxicity, crystal violet biomass reduction assay, HeLa. It counts as cell-based. To be noted: 72 h. How it is done: as §1, §2
Setting [15] is: 7H12 medium, read-out: MABA:MIC 7H12.
The mark [16] stands for this setting: glycerol-alanine-salts medium, read-out: MABA:MIC GAS.

Structures are written as SMILES. Values after ≈ are worked out from the molar mass of the structure shown. Like-named read-outs stand apart in the source and are kept apart here.

For the compound `O=C(O)c1cn(C2CC2)c2cc(N3CCNCC3)c(F)cc2c1=O` [Ciprofloxacin, reference compound], the In vitro activity (MIC) S. aureus SG511 in [1] amounted to 0.32 µM. Also, the In vitro activity (MIC) A. baumanii ATCC17961 in data set [2] amounted to 0.156 µM. Further, in data set [3], the “In vitro activity (MIC) P. aeruginosa KW799/61” value came to 0.156. The same compound came in with an In vitro activity (MIC) M. vaccae IMET10670 in data set [4] of 0.32 µM. For the same compound, the In vitro activity (MIC) M. smegmatis in data set [5] worked out at 0.32 µM. In addition, the In vitro activity (MIC) M. luteus ATCC10240 in [6] turned out to be 1.25 µM. For the same compound, the “In vitro activity (MIC) M. aurum” value in data set [7] is given as 0.020.
The term MIC denotes the lowest concentration found to suppress growth. Regarding `C[C@H]1COC2(CCN(c3nc(=O)c4cc(C(F)(F)F)cc([N+](=O)[O-])c4s3)CC2)O1` [Compound 1, BTZ043, reference compound], the In vitro activity (MIC) S. aureus SG511 in data set [1] is > 0.2 µM. In data set [8], the “Activity against M. tuberculosis (in words)” value is on record as “impressive activity”. In data set [8] (setting [15]), the MIC is < 0.02 µM. For the same compound, in [8] (setting [16]), the MIC was < 0.02 µM. Moreover, the In vitro activity (MIC) A. baumanii ATCC17961 in [2] is > 200 µM. Further, in data set [3], the “In vitro activity (MIC) P. aeruginosa KW799/61” value was >200. Moreover, in data set [4], the In vitro activity (MIC) M. vaccae IMET10670 was 0.002 µM. In addition, in [9], the In vitro activity (MIC) M. marinum is 0.037 µM. Also, the “Cytotoxicity MCF-7” value in [10] is >20. The In vitro activity (MIC) M. smegmatis in [5] stood at 0.002 µM. Further, in data set [11], the “Activity against M. bovis (in words)” value is “impressive activity” and the In vitro activity (MIC) M. bovis is < 0.02 µM. Further, in data set [12], the “Cytotoxicity PC3” value is listed as >20. Moreover, the In vitro activity (MIC) M. kansasii in data set [13] is < 0.02 µM. Also, the In vitro activity (MIC) M. luteus ATCC10240 in data set [6] was > 200 µM. For the same compound, the “Cytotoxicity HeLa” value in data set [14] is reported as >20. For the same compound, the “In vitro activity (MIC) M. aurum” value in [7] is recorded as >200.
In data set [1], `C[C@H]1COC2(CCN(c3nc(=O)c4cc(C(F)(F)F)cc([N+](=O)[O-])c4[s+]3[O-])CC2)O1` (stereo partly drawn) [Compound 5, 2-((S)-2-Methyl-1,4-dioxa-8-azaspiro[4.5]decan-8-yl)-8-nitro-6-(trifluoromethyl)-4H-benzo[e][1,3]thiazin-4-one 1-oxide] displayed an In vitro activity (MIC) S. aureus SG511 of 12.5 µM. Moreover, the “Activity against M. tuberculosis (in words)” value in data set [8] is given as “impressive activity”. In addition, the MIC in [8] (setting [15]) stood at 0.06 µM (≈ 0.0268 µg/mL). Besides, in data set [8] (setting [16]), the MIC was < 0.02 µM. Besides, the In vitro activity (MIC) A. baumanii ATCC17961 in data set [2] is > 200 µM. Also, in [3], the “In vitro activity (MIC) P. aeruginosa KW799/61” value was >200. Moreover, the In vitro activity (MIC) M. vaccae IMET10670 in [4] was < 0.013 µM. In addition, in [9], the “Activity against M. marinum (in words)” value is on record as “demonstrated activity” and the In vitro activity (MIC) M. marinum was found to be 0.19 µM. Further, the “Cytotoxicity MCF-7” value in data set [10] is >20. Besides, the In vitro activity (MIC) M. smegmatis in [5] is < 0.013 µM. Also, in [11], the “Activity against M. bovis (in words)” value is recorded as “impressive activity” and the In vitro activity (MIC) M. bovis came out at 0.21 µM. In data set [12], the “Cytotoxicity PC3” value was 15. Moreover, in data set [13], the “Activity against M. kansasii (in words)” value was “demonstrated activity” and the In vitro activity (MIC) M. kansasii is 0.3 µM. The same compound registered an In vitro activity (MIC) M. luteus ATCC10240 in data set [6] of 50 µM. Moreover, the “Cytotoxicity HeLa” value in data set [14] was >20. In addition, the “In vitro activity (MIC) M. aurum” value in [7] is listed as 3.13-12.5.
In [1], `C[C@H]1COC2(CCN(C3=NC(=O)c4cc(C(F)(F)F)cc([N+](=O)[O-])c4S3(=O)=O)CC2)O1` [Compound 6, (S)-2-(2-Methyl-1,4-dioxa-8-azaspiro[4.5]decan-8-yl)-8-nitro-6-(trifluoromethyl)-4H-benzo[e][1,3]thiazin-4-one 1,1-dioxide] registered an In vitro activity (MIC) S. aureus SG511 of 0.2 µM. Besides, the “Activity against M. tuberculosis (in words)” value in data set [8] was “only weakly active”. The figures for the MIC in data set [8] (setting [15]) and in [8] (setting [16]) were 1.46 µM (≈ 0.677 µg/mL) and 0.75 µM, respectively. For the same compound, in data set [2], the In vitro activity (MIC) A. baumanii ATCC17961 was > 200 µM. The “In vitro activity (MIC) P. aeruginosa KW799/61” value in data set [3] is recorded as >200. For the same compound, the In vitro activity (MIC) M. vaccae IMET10670 in [4] is < 0.013 µM. In addition, in [9], the “Activity against M. marinum (in words)” value was “either inactive or weakly inactive”. For the same compound, the “Cytotoxicity MCF-7” value in data set [10] was >20. In [5], the In vitro activity (MIC) M. smegmatis is > 0.5 µM. For the same compound, in data set [11], the “Activity against M. bovis (in words)” value is reported as “only weakly active”. The “Cytotoxicity PC3” value in [12] is reported as >20. The “Activity against M. kansasii (in words)” value in data set [13] was “either inactive or weakly inactive”. Also, the In vitro activity (MIC) M. luteus ATCC10240 in [6] was > 200 µM. Moreover, the “Cytotoxicity HeLa” value in [14] is on record as >20. In [7], the “In vitro activity (MIC) M. aurum” value is on record as >200.
In the case of `NNC(=O)c1ccncc1` [INH], the MIC was found to be 0.1 µM (≈ 0.0137 µg/mL) in [8] (setting [15]) and 0.03 µM in data set [8] (setting [16]). In data set [9], the In vitro activity (MIC) M. marinum is > 8 µM. The compound also returned an In vitro activity (MIC) M. bovis in [11] of 0.5 µM. In [13], this compound showed an In vitro activity (MIC) M. kansasii of 3.86 µM.
For the compound `CO[C@H]1/C=C/O[C@@]2(C)Oc3c(C)c(O)c4c(O)c(c(/C=N/N5CCN(C)CC5)c(O)c4c3C2=O)NC(=O)/C(C)=C\C=C\[C@H](C)[C@H](O)[C@@H](C)[C@@H](O)[C@@H](C)[C@H](OC(C)=O)[C@@H]1C` [Rifampin], the MIC came out at 0.05 µM (≈ 0.0411 µg/mL) in data set [8] (setting [15]) and 0.04 µM in [8] (setting [16]). The compound also gave an In vitro activity (MIC) M. marinum in data set [9] of 0.23 µM. In data set [11], this compound yielded an In vitro activity (MIC) M. bovis of 0.02 µM. Further, the In vitro activity (MIC) M. kansasii in data set [13] was determined as 0.1 µM.
